Assay results published in patent US20250099405A1, “COMPOSITIONS, METHODS, AND DEVELOPMENT OF ARID4B INHIBITORS” (University of Kentucky Research Foundation, priority 2022, published 2025).

How the values were obtained:
HA-ARID4B = target: T1, HA-ARID4B (Homo sapiens, UniProt Q4LE39); assay: CETSA in HEK-293T cells expressing HA-ARID4B; assay type: cell-based; details: 10 μM, 2 h
T1 construct: transfected with vector, full-length ARID4B or ARID4B deletion mutants; expressed in transfected cells; host or cells: HEK-293T
T1 sequence (Q4LE39 1-1312): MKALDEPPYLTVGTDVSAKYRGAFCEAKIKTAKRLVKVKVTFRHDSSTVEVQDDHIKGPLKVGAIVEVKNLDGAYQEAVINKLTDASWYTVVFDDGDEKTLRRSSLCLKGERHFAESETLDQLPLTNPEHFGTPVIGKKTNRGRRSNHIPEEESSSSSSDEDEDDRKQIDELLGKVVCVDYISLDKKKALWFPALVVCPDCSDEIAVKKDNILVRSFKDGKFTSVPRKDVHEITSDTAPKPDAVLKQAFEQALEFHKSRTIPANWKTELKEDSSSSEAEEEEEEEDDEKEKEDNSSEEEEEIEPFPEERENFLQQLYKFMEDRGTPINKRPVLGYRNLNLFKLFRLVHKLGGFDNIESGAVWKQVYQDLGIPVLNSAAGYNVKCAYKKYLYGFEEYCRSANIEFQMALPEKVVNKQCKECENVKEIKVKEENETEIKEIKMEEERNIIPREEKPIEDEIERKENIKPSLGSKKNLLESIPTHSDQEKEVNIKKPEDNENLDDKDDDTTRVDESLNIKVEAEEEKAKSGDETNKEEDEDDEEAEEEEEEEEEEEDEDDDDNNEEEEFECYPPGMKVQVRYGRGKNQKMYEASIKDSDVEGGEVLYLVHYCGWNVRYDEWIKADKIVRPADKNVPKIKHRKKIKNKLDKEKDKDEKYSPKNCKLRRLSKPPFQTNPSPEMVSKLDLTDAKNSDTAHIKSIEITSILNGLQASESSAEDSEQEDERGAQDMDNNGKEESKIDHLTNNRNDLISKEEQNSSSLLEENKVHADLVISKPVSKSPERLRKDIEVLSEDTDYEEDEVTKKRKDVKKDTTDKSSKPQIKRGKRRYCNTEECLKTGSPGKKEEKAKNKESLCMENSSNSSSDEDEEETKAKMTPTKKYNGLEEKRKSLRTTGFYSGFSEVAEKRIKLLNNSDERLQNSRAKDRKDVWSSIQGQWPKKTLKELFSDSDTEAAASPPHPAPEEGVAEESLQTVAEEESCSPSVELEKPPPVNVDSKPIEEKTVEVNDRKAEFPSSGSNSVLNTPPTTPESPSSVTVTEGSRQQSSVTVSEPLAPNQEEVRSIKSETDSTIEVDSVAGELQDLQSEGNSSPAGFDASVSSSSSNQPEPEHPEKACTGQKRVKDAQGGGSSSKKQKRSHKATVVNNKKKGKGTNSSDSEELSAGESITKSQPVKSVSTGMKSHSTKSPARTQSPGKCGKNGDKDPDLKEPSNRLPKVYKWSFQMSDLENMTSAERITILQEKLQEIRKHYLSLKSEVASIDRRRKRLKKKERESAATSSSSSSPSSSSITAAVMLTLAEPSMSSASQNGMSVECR
Procedure: (B-C) show cells expressing HA-ARID4B (C) or HA-ARID4BIC (D) treated or not with ARD150 (10 μM) for 2 h were used for CESTA. […] (D-E) show cells expressing HA-ARID4B (D) or Flag-ARID4A (E) treated or not with RWR-18 (10 μM) for 2 h were used for CESTA. […] Data are means±SEM from three experiments. *P<0.05, **P<0.01, ns, not significant.
Using CETSA (cellular thermal shift assay) to examine whether ARD150 or RWR-18 binds to ARID4B, MCF7 cells treated or not with ARD150 or RWR-18 for 2 h were collected, followed by heating at 46, 49, 52, 55, and 58° C. to denature and precipitate ARID4B protein, cell lysis, removal of cell debris and aggregates by centrifugation, and finally detection of remaining thermostable ARID4B protein by western blot. The ARID4B aggregation temperatures without ARD150 were determined to be 49-52° C., but shifted to 52-55° C. after treatment with ARD150 and even more so with RWR-18 (FIG. 15A-D). To determine whether ARD150 and RWR-18 targets the chromodomain of ARID4B, CESTA was performed using chromodomain deletion mutant (ARID4BAC). HEK-293T cells expressing HA-ARID4B or HA-ARID4BAC were treated or not with ARD150 (10 μM) for 2 h and processed for CESTA.

ARID4B chromodomain = target: T2, ARID4B chromodomain (Homo sapiens, UniProt Q4LE39); assay: Isothermal titration calorimetry (ITC); assay type: binding
T2 sequence (Q4LE39 572-624 limits assumed): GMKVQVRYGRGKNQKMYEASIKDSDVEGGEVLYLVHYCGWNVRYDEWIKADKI
Source text: It was then undertaken to identify compounds that inhibit ARID4B, focusing on the chromodomain therein. First, the structure of ARID4B was created using a homology model based on an optimized computational platform that combines the iterative threading assembly refinement (TASSER) and SWISSMODEL (FIG. 14A-B). Protein structure prioritization was based on protein-model accuracy, quantitatively measured C-score, TM-score and RMSD value. Next, in silico screening of 160,000 drug-like diverse small molecules from MOE's chemical repository combined with biophysical characterization including isothermal calorimetry (ITC, FIG. 16) and circular dichroism (data not shown) of identified compound ARD150 with recombinant ARID4B chromodomain informed chemical synthesis of diverse scaffolds.
Isothermal titration calorimetry (ITC) was used to confirm the binding of ARD150 and its derivative RWR18 (derived from ARD150 with slight structural modifications) to ARID4B chromodomain and to determine the Kd, reaction stoichiometry (n), enthalpy (ΔH) and entropy (ΔS). […] This highlights to power of rational design to tune the target engagement and affinity of ligands.

MCF7 = assay: MTT proliferation assay, MCF7; assay type: cell-based; details: Homo sapiens, MCF7, 336 h, 14 days
Procedure: (§1) To determine the EC50 of ARD150 and two of its derivatives in breast cancer, MCF7, ZR75-1 (wild-type ERα+), and MCF7 Y537S (constitutively activate ERα mutant) and their ARID4B KO counterparts were seeded in 24 well plate and treated with the various concentrations (0, 0.1, 1, 5, 10, 20, 40, 60, and 100 μM) of ARD150 and RWR-18 for 14 days. […] Knockout of ARID4B renders cells less sensitive to these compounds.

T47D = assay: MTT proliferation assay, T47D; assay type: cell-based; details: data not shown
MCF7 Y537S = assay: MTT proliferation assay, MCF7 Y537S; assay type: cell-based; details: data not shown
Procedure: as §1

MCF10A = assay: Proliferation assay, non-tumorigenic MCF10A; assay type: cell-based; details: MCF10A expresses lower ARID4B

Row | SMILES | shift of aggregation temperatures of HA-ARID4B (HA-ARID4B) | Kd (ARID4B chromodomain) | EC50 (MCF7) | EC50 for T47D (T47D) | EC50 for MCF7 Y537S (MCF7 Y537S) | effect on non-tumorigenic MCF10A (MCF10A)
1 | O=C(COc1ccc(OCc2ccccc2)cc1)NCCCN1CCOCC1 [RWR-18] | resulted in a shift of aggregation temperatures | 1 µM | 7.9 µM | comparable to that of MCF7 | comparable to that of MCF7 | insensitive
2 | COc1ccc(C(=O)NCCCN2CCOCC2)cc1OC [ARD150] | resulted in a shift of aggregation temperatures | 3.5 µM | 13.8 µM | comparable to that of MCF7 | comparable to that of MCF7 | insensitive
